# Results from ChEMBL document CHEMBL1141470, “4-(Heteroarylaminomethyl)-N-(2-aminophenyl)-benzamides and their analogs as a novel class of histone deacetylase inhibitors” (Bioorg Med Chem Lett, 2008).
# Active and inactive are the calls of the source. The rule behind the calls is not given here.
# Columns and labels:
# HCT-116 [1] = assay: Cytotoxicity against human HCT116 cells by MTT assay; assay type: functional, cell-based
# Histone deacetylase 1 [2] = molecular target: T1, Histone deacetylase 1 (Homo sapiens, UniProt Q13547); assay: Inhibition of recombinant HDAC1
# T1 sequence (Q13547 whole entry): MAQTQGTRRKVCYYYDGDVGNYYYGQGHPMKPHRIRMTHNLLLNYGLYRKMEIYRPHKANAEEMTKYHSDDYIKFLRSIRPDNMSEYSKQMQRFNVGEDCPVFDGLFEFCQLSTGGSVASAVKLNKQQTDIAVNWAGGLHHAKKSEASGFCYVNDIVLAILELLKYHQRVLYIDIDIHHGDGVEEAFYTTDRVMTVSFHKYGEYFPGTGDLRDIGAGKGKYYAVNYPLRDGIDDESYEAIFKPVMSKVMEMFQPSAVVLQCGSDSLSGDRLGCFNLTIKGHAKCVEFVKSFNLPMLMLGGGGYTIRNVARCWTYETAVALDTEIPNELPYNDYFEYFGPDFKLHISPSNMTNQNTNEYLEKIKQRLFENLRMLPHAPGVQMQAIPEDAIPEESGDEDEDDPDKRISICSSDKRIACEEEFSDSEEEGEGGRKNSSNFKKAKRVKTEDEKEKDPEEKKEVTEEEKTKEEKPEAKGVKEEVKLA
# Histone deacetylase 1 [3] = molecular target: T1, Histone deacetylase 1; assay: Inhibition of HDAC1 in human T24 cells assessed as induction of histone H4 acetylation after 16 hrs relative to MS-275; assay type: cell-based, T-24
# T-24 = assay: Induction of p21WAF1/CIP1 expression in human T24 cells; assay type: functional, cell-based
# HMEC = assay: Cytotoxicity against human HMEC cells by MTT assay; assay type: cell-based
# HCT-116 [4] = assay: Cell cycle arrest in human HCT116 cells by accumulation at G2/M phase; assay type: functional, cell-based
# COLO 205 = assay: Antitumor activity in human COLO205 cells xenografted mouse assessed as tumor growth inhibition at 90 mg/kg, po qd after 14 days relative to control; assay type: functional; design: scale not given: the % may be the effect or the level left
# A549 [5] = assay: Antitumor activity in human A549 cells xenografted mouse assessed as tumor growth inhibition at 90 mg/kg, po qd after 14 days relative to control; assay type: functional; design: scale not given: the % may be the effect or the level left
# SW48 [6] = assay: Antitumor activity in human SW48 cells xenografted mouse assessed as tumor growth inhibition at 20 mg/kg, ip qd after 14 days relative to control; assay type: functional; design: scale not given: the % may be the effect or the level left; settings: route intraperitoneal
# A549 [7] = assay: Antitumor activity in human A549 cells xenografted mouse assessed as tumor growth inhibition at 20 mg/kg, ip qd after 14 days relative to control; assay type: functional; design: scale not given: the % may be the effect or the level left; settings: route intraperitoneal
# PANC-1 = assay: Antitumor activity in human PANC1 cells xenografted mouse assessed as tumor growth inhibition at 20 mg/kg, ip qd after 14 days relative to control; assay type: functional; design: scale not given: the % may be the effect or the level left; settings: route intraperitoneal
# SW48 [8] = assay: Antitumor activity in human SW48 cells xenografted mouse assessed as tumor growth inhibition at 90 mg/kg, po qd after 14 days relative to control; assay type: functional; design: scale not given: the % may be the effect or the level left
IC50 (Histone deacetylase 1 [2]) [µM],EC50 (Histone deacetylase 1 [3]) [µM],Structure (SMILES),IC50 (HCT-116 [1]) [µM],IC50 (HMEC) [µM],other results
0.03,1,COc1ccc2nc(NCc3ccc(C(=O)Nc4ccccc4N)cc3)sc2c1,0.2,5,EC50 (T-24): 0.8 µM; Activity (HCT-116 [4]): Active
0.07,3,Nc1ccccc1NC(=O)c1ccc(CSc2nc3ccc(NCc4ccccn4)cc3s2)cc1,1,8,
0.5,,Nc1ccccc1NC(=O)c1ccc(CSc2ncc[nH]2)cc1,5,,
0.08,,Nc1ccccc1NC(=O)c1ccc(CSc2nnc(-c3ccccc3)o2)cc1,0.4,,
0.1,3,Nc1ccccc1NC(=O)c1ccc(CSc2nc3ccccc3s2)cc1,0.8,3,
0.1,1,Nc1ccccc1NC(=O)c1ccc(CNc2nc3ccccc3[nH]2)cc1,0.3,27,
0.2,,CSc1nnc(NCc2ccc(C(=O)Nc3ccccc3N)cc2)[nH]1,0.6,,
0.07,1,COc1ccc2nc(SCc3ccc(C(=O)Nc4ccccc4N)cc3)[nH]c2c1,0.2,10,EC50 (T-24): 0.6 µM; Activity (HCT-116 [4]): Active
0.07,5,Nc1ccccc1NC(=O)c1ccc(CSc2nc3ccc(NCCN4CCOCC4)cc3s2)cc1,0.2,15,
0.05,2,Nc1ccccc1NC(=O)c1ccc(CNc2nc3ccc(Br)cc3s2)cc1,0.4,6,
0.4,,Nc1ccccc1NC(=O)c1ccc(CNc2ncc(Br)s2)cc1,0.4,,
0.1,1,Nc1ccccc1NC(=O)c1ccc(CNc2nc3cc(Cl)ccc3o2)cc1,0.2,17,
0.3,,Nc1ccccc1NC(=O)c1ccc(CNc2ncc(-c3ccc(Cl)cc3)s2)cc1,0.3,,
1,,Cn1ccnc1SCc1ccc(C(=O)Nc2ccccc2N)cc1,5,,
0.8,2,Nc1ccccc1NC(=O)c1ccc(CSc2nc3ccc(NCc4cccnc4)cc3s2)cc1,1,> 50,
0.06,1,Nc1ccccc1NC(=O)c1ccc(CNc2nc3ccc(OCCN4CCOCC4)cc3s2)cc1,0.2,15,Activity (COLO 205): 62%; Activity (A549 [5]): 65%; EC50 (T-24): 1 µM; Activity (SW48 [6]): 74%; Activity (A549 [7]): 65%; Activity (HCT-116 [4]): Active; Activity (PANC-1): 70%; Activity (SW48 [8]): 72%
0.07,,Nc1ccccc1NC(=O)c1ccc(CNc2cc(-c3ccccc3)[nH]n2)cc1,0.3,,

Structure (SMILES),IC50 (Histone deacetylase 1 [2]) [µM],EC50 (Histone deacetylase 1 [3]) [µM],IC50 (HCT-116 [1]) [µM],IC50 (HMEC) [µM],other results
Nc1ccccc1NC(=O)c1ccc(CSc2nc3ccccc3[nH]2)cc1,0.09,< 1,0.3,14,
